Values joined by “and” are separate entries in the source; they are usually repeats but may differ in a detail not shown here. Identical values can stand only once.
What was measured:
[1] = tested on: ICR mice; assay: Liver injury in mice, group A (DEX induction): liver/body weight, ALT, AST, H&E; assay type: in vivo; settings: individual mouse, liver H&E
Method: (§1) Male adult ICR mice (20 ± 2 g) were supplied by the Model Animal Research Center of Nanjing University (Nanjing, China). All experiments and animal care were conducted in accordance with the Provision and General Recommendation of Chinese Experimental Animals Administration Legislation and were approved by the Science and Technology Department of Jiangsu Province [license number: SYXK (SU) 2016-0011]. The mice were housed in a controlled temperature and humidity of 22 ± 2°C and 55 ± 5%, respectively, and maintained on a 12 h light/dark cycle with free access to food and water. Mice were fastened for 12 h and free to water before treatment.
(§2) Mice were randomly assigned into two groups for different treatment. The protocol was conducted as previously described with minor modification ([Iida et al., 2015]; [Li W. et al., 2016]). […] Blood and liver tissues were collected in 24 h following treatment. All the livers were quickly removed and the left lateral liver lobes were used for histopathological examinations.
The collected blood samples were allowed to clot at room temperature, followed by centrifugation at 4°C, 1,000 × g for 10 min. […] The sections were stained with hematoxylin and eosin (H&E), and finally evaluated by a pathologist using an optical microscope.

[2] = tested on: CYP3A4 OE HepG2 cells; assay: MTT cytotoxicity in stable CYP3A4 over-expressed HepG2 cells; assay type: cell-based, human; settings: DCF 400–2000 μM
Method: (§3) Cells were allowed to grow in the selection medium for 4 weeks, at which time individual clonal expansions (clones) were visible. Each clone was transferred and tested for enzymatic activity by a quantitative polymerase chain reaction (Q-PCR), western blot analysis and determining hydroxylation of testosterone.
(§4) The neutral red assay was performed to assess cell viability of NIH3T3 cells. […] After incubation, the neutral red reagent was added following the manufacturer’s instruction. The OD value was detected at 570 nm. The WT and CYP3A4 OE HepG2 and L02 were treated in the same manner as NIH3T3 cells, and cell viability was measured by MTT assay. Cell viability was calculated with the following equation (Eq. 1). OD value is presented as the mean ± SD from three independent replicate experiments.
(§5) Cell viability (%) =[…]

[3] = tested on: CYP3A4 OE L02 cells; assay: MTT cytotoxicity in stable CYP3A4 over-expressed L02 cells; assay type: cell-based, human; settings: DCF 400–2000 μM
Method: as §3, §4, §5

[4] = tested on: primary human hepatocytes (PHH); assay: MTT cytotoxicity in primary human hepatocytes, with or without KTZ or RIF pre-incubation; assay type: cell-based; settings: 1 mM DCF
Method: All of the compounds were dissolved in DMSO with the final concentration of DMSO was less than 0.2% in the incubation system. The MTT assay was employed and the optical density (OD) value was measured at 490 nm with a microplate reader (BioTek Instruments, Winooski, VT, United States).

[5] = tested on: ICR mice; assay: Liver injury in mice, group B (KTZ inhibition): liver/body weight, ALT, AST, H&E; assay type: in vivo; settings: individual mouse, liver H&E
Method: as §1, §2
The collected blood samples were allowed to clot at room temperature, followed by centrifugation at 4°C, 1,000 × g for 10 min. The resulting sera were immediately sent for alanine transaminase (ALT) and aspartate aminotransferase (AST) assays to the laboratory in Jiangsu Province Hospital of Traditional Chinese and Western Medicine (Nanjing, China) on ice. The testing laboratory was authenticated with ISO15189 and the assay was performed in a Roche Cobas 8000 (ISE/701/701/502) automatic biochemical analyzer. Liver tissues were immediately fixed in 4% paraformaldehyde for at least 24 h, then paraffin-processed, and sectioned into 3-μm thick slices. The sections were stained with hematoxylin and eosin (H&E), and finally evaluated by a pathologist using an optical microscope.

[6] = tested on: CYP3A11; assay: Hepatic CYP3A11 expression in mice by Q-PCR and Western blot; assay type: in vivo, mouse; settings: mice liver, KTZ 75 mg/kg i.p., vs control

C[C@@H]1C[C@H]2[C@@H]3CCC4=CC(=O)C=C[C@]4(C)[C@@]3(F)[C@@H](O)C[C@]2(C)[C@@]1(O)C(=O)CO [DEX, Dexamethasone]
Congestion (histopathologic score) [1]: 1
Scores (histopathologic, total) [1]: 0 and 1

O=C(O)Cc1ccccc1Nc1c(Cl)cccc1Cl [DCF, diclofenac sodium]
cell viability in CYP3A4 OE HepG2 cells compared with WT cells [2]: greatly decreased
cell viability in CYP3A4 OE L02 cells compared with WT cells [3]: greatly decreased
cell viability of PHH in the presence of KTZ ([4]; 24 h, KTZ 10 μM): remarkably increased
cell viability of PHH pre-incubated with RIF ([4]; RIF 20 μM): significantly decreased

CC(=O)N1CCN(c2ccc(OCC3COC(Cn4ccnc4)(c4ccc(Cl)cc4Cl)O3)cc2)CC1 (stereo not shown) [KTZ, ketoconazole]
Inflammatory cells (histopathologic score) [5]: 0.5
Scores (histopathologic, total) [5]: 0 and 0.5
hepatocytes Degeneration (histopathologic score) [5]: 0.5
decrease in CYP3A11 expression [6]: about 20%

From article PMC6156363, “The Modulatory Role of CYP3A4 in Dictamnine-Induced Hepatotoxicity” (Frontiers in Pharmacology, 2018)
